Experimental data as given in patent US6444872B1, “Large animal model of invasive pulmonary aspergillosis in an immunocompromised host” (priority 1999, dated 2002).

Assays:
Aspergillus fumigatus = experiment: Beagle model of invasive pulmonary aspergillosis in an immunocompromised host (TBI + steroids, bronchoscopic spore inoculation); type: in vivo
Text: 1. The “Right” Animal: While choosing an animal the inventors had to consider that a human/clinical mold infection, such as an Aspergillus infection, usually begins as a localized infection and not as a widespread and diffuse pulmonary infection. To be able to reproducibly inoculate a specified dose of an infectious agent in a limited, defined part of the airways the inventors must have easy access to a particular part of the pulmonary tree. This meant that a large animal, such as dog, pig, sheep or monkey, rather than a rodent or lagomorph should be considered. The beagle, which is accepted by both the NCI and the FDA for safety studies of pharmaceutically active agents prior to entering clinical trials, was favored. This dog is easily accessible from several commercial breeders, and in addition to the selected experimental dogs one could conveniently house extra animal's for donation of both platelets and red cells to be transfused as needed during the supportive care phase of the experiments, i.e. after the mold administration.
2. Immunosuppression: For immunosuppression the inventors chose total body irradiation (TBI) with an X-ray (Cobalt) (XRT) source, administered with the animal under general anesthesia in a specially constructed box to obtain uniform radiation exposure. […] Further, the XRT dose can be calculated such that it gives a window of fairly deep immunosuppression sustained for 3-5 weeks, which should be sufficient for the intended purpose. The XRT was followed with daily oral prednisolone administration to further suppress T-lymphocyte and macrophage function and enhance spreading the infection.
3. Mold Species: More than 90% of human clinical Aspergillus infections are a result of Aspergillus fumigatus infection.
4. Mold Dose: To standardize the mold dosage, the inventors prepared batches of Aspergillus spores that were mixed in agarose and stirred down vigorously in mineral oil to obtain a suspension of spores encapsulated in small agarose beads (the approximate average bead diameter was 20 μm). After washing the beads in 0.5% deoxycholate, they were mixed with glycerol prior to cryopreservation and storage at −70° C. The use of agar beads and other encapsulation methods are also contemplated.
5. Mold Administration: The human clinical infection usually starts as a localized airway infection either in the sinuses or in a part of one lung, and not as a generalized pulmonary infection. The inventors decided to utilize a pediatric bronchoscope to safely and reproducibly introduce the Aspergillus spores in the intermediary (lower) right lung lobe. After standardization of the dose, 1×10^6 spores encapsulated in agarose beads and resuspended in NS were infused at each occasion.
6. Time of Mold Administration: In most human patients, Aspergillus infections occur at a time of leukopenia and profound immunosuppression. The time to develop leukopenia after TBI was very reproducible in the beagles. At day 10-14 days after XRT, when the animal's absolute white blood cell count falls below about 500 per μL (neutrophil count <400 per μL), the mold spore administration was performed. The WBC remain at about <500 per μL till day 25-30 after TBI, at which time the count recovered fairly rapidly in animal's that had not been inoculated with Aspergillus spores, or in beagles who had been inoculated with a dose that was too low to yield progressive infection.
7. Supportive Care: The first few animal's died from a superimposed secondary bacterial infection rather than from the mold infection itself In addition, there were bleeding complications when the dogs' platelet count fell below 10,000 per μL. The inventors therefore decided to utilize prophylactic oral (broad-spectrum) antibiotics and “prophylactic” platelet transfusions. […]

[1] = human, in vivo; cited from earlier work
[2] = in vivo; cited from earlier work
[3] = the two dogs that rejected the infection

C[C@@H]1C/C=C/C=C/C=C/C=C/[C@H](O[C@@H]2O[C@H](C)[C@@H](O)[C@H](N)[C@@H]2O)C[C@@H]2O[C@](O)(C[C@@H](O)C[C@H]3O[C@@H]3/C=C/C(=O)O1)C[C@H](O)[C@H]2C(=O)O [Natamycin]
outcome of infection (Aspergillus fumigatus; after a 16-day cycle of daily Natamycin treatments): two animal's rejected the infection
life span after fungal inoculation (Aspergillus fumigatus; one animal, expected life span nine days, daily intravenous Natamycin): 17 days
Pneumonia (Aspergillus fumigatus; single dog, 1 x 10^6 spores, TBI 3.0 Gy, steroid 30/10 mg, platelet/antibiotic support): Yes
Complications (outcome) (Aspergillus fumigatus; single dog, survived pneumonia 4 weeks post therapy): Dog survived
necropsy finding (Aspergillus fumigatus; [3]): only signs of healing
time free from resurgence of the mold infection post completion of drug treatment (Aspergillus fumigatus; [3]): one
extended life as compared to untreated animals (Aspergillus fumigatus; therapy instituted a day after Aspergillus inoculum, last 3 beagles, 3.0 Gy TBI): Natamycin extended life by 80% as compared to untreated animals

C[C@@H]1[C@H](O)[C@@H](C)/C=C/C=C/C=C/C=C/C=C/C=C/C=C/[C@H](O[C@@H]2O[C@H](C)[C@@H](O)[C@H](N)[C@@H]2O)C[C@@H]2O[C@](O)(C[C@@H](O)C[C@@H](O)[C@H](O)CC[C@@H](O)C[C@@H](O)CC(=O)O[C@H]1C)C[C@H](O)[C@H]2C(=O)O [AMB, Amphotericin B]
cases with nephrotoxicity [1]: > 75%

CC[C@]1(O)C[C@@H]2CN(CCc3c([nH]c4ccccc34)[C@@](C(=O)OC)(c3cc4c(cc3OC)N(C)[C@H]3[C@@](O)(C(=O)OC)[C@H](OC(C)=O)[C@]5(CC)C=CCN6CC[C@]43[C@@H]65)C2)C1 [Vinblastine]
administered dose recovered in the feces after biliary excretion [2]: about 10%
dose excreted intact into the urine [2]: Approximately 15%
